# Laboratory results as given in patent US20100041615A1 (Medac Gesellschaft Fur Klinische Spezialpraparate MBH, priority 2006, published 2010).
# Starred links: 1 amine or outer side, 2 acyl side, 3 side chain; linkers in the order of their positions; H or OH if unused. Non-standard residues stand in square brackets, D forms with d. Residues, ends and D or L forms follow the SMILES beside them. Groups on a side chain read outwards from the residue. *: point of attachment. γ‑MTX = gamma-methotrexate, CN(Cc1cnc2nc(N)nc(N)c2n1)c1ccc(C(=O)N[C@@H](CCC(=O)*)C(=O)O)cc1; DAMPA = CN(Cc1cnc2nc(N)nc(N)c2n1)c1ccc(C(=O)*)cc1; Hexanoyl(6-maleimido) = O=C1C=CC(=O)N1CCCCCC(=O)*; γGlu = O=C(O)[C@H](CCC(=O)[*:2])N[*:1]
# Experiments:
# [1] = test system: OVCAR-3 (ovarian carcinoma growing subcutaneously); assay: In vivo tumor-inhibiting properties, OVCAR-3 model; parameters: species or system nude mice NMRI; conditions: i.v. day 7, 14, 21, 28; dosage [mg/Kg] MTX equivalents: MTX 4 × 100, AW054-EMC 4 × 15, C175 3 × 15
# Experimental: Animals: nude mice NMRI; tumor model: OVCAR-3 (ovarian carcinoma growing subcutaneously) Therapy: day 7, 14, 21, 28; i. v. (10 mM sodium phosphate/5% D-glucose buffer pH 6.4); dosages relate to methotrexate equivalents.
# [2] = test system: collagen-induced arthritis model; assay: In vivo antirheumatic properties, collagen-induced arthritis model, therapy day 30-48; parameters: species or system mice (m, DBA/1); conditions: i.v. day 30, 34, 37, 41, 44, 48; dosage [mg/Kg] MTX equivalents: MTX 6 × 35, AW054-EMC 6 × 20
# Experimental: Animals: mice (m, DBA/1; model: collagen-induced arthritis model) Therapy: day 30, 34, 37, 41, 44, 48; i. v. (10 mM sodium phosphate/5% D-glucose buffer pH 6.4); dosages relate to methotrexate equivalents.
# [3] = test system: collagen-induced arthritis model; assay: Collagen-induced arthritis model, therapy twice a week as of day 14, 42 or 30 (Table 1: early treatment protocol); assay type: in vivo, mice (m, DBA/1); conditions: 35 mg/kg, n = 15, early treatment protocol
# Experimental: Animals: mice (m, DBA/1; model: collagen-induced arthritis model) Therapy: twice a week as of day 14, 42 and 30, respectively; i. v. (10 mM sodium phosphate/5% D-glucose buffer pH 6.4); dosages relate to methotrexate equivalents.
# [4] = human blood plasma; conditions: 37° C., up to 24 hours
# [5] = target: human plasma plasmin (Homo sapiens, UniProt P00747); assay type: biochemical; conditions: pH 7.4
# Experimental: Preparation of the albumin conjugate: 4.00 mg of EMC-D-Ala-Phe-Lys-Lys(γ-MTX)-OH are dissolved in 8 mL of a 5% HSA solution (Octopharm) at room temperature and shaken at 37° C. for 2 hours. Subsequently, the sample is brought to a concentration of 700 μM by concentration with Centriprep® disposable concentrators.
# Cleavage by plasmin: Now, 100 μL of the solution of the albumin conjugate are diluted with 500 μL buffer (4 mM sodium phosphate, 150 mM NaCl, pH 7.4), 20 μL of human plasma plasmin (370 mU) are added and the mixture is incubated at 37° C. The determination of the cleavage products is performed with the HPLC method described in Example 2 (FIGS. 3 and 4).
# [6] = assay type: in vitro ADME, human
# Experimental: Preparation of the Tumor Homogenate: The Tumor Material is Comminuted by Means of a scalpel, and 200 mg of the mass are homogenized in a shaker with 800 μL buffer (Tris-buffer pH 7.4) with addition of 3-4 glass beads. Subsequently, centrifugation is carried out at 4° C. and the supernatant is aliquoted to 200 μL.
# Now, 100 μL of the solution of the albumin conjugate EMC-D-Ala-Phe-Lys-Lys(γ-MTX)-OH described in Example 4 are diluted with 500 μL of a homogenate solution (homogenate, 1:2 diluted with buffer [4 mM sodium phosphate, 150 mM NaCl, pH 7.4]) and incubated at 37° C. The determination of the cleavage products is performed with the HPLC method described in Example 2 (FIG. 7).
# [7] = synovial fluid of six patients suffering from rheumatoid arthritis; conditions: human (patients suffering from rheumatoid arthritis), 37° C., up to four hours
# [8] = target: HSA (Homo sapiens, UniProt P02768); assay: Bonding to HSA in human plasma (C18-RP-HPLC)
# [9] = OVCAR-3 tumor homogenate (homogenate of a human ovarian xenograft); conditions: human ovarian xenograft (OVCAR-3), 37° C., up to four hours
# [10] = test system: human plasma plasmin; assay: human plasma plasmin (370 mU) in buffer (4 mM sodium phosphate, 150 mM NaCl, pH 7.4); conditions: 37° C., up to 20 hours
# [11] = test system: human cathepsin B; assay: human cathepsin B (2.1 U) in buffer (50 mM sodium acetate, 100 mM NaCl, 4 mM EDTA*2 Na, 8 mM L-cysteine, pH 5.0); conditions: 37° C., up to 24 hours
# [12] = Cleavage experiments of the albumin conjugates, summary of the examples; assay type: in vitro ADME; conditions: after cleavage of the albumin conjugates
# Experimental: It becomes evident from the examples that after incubation with human blood plasma, the corresponding albumin conjugate is substantially formed already after 2 min. […] The cleavage results in the formation of e.g. H-Lys(γ-MTX)-OH, which constitutes the only low-molecular cleavage product. […] In the case of the collagen-induced arthritis model, it is about 20% of the corresponding methotrexate equivalent dosage.
# HSA, sequence (P02768 25-609): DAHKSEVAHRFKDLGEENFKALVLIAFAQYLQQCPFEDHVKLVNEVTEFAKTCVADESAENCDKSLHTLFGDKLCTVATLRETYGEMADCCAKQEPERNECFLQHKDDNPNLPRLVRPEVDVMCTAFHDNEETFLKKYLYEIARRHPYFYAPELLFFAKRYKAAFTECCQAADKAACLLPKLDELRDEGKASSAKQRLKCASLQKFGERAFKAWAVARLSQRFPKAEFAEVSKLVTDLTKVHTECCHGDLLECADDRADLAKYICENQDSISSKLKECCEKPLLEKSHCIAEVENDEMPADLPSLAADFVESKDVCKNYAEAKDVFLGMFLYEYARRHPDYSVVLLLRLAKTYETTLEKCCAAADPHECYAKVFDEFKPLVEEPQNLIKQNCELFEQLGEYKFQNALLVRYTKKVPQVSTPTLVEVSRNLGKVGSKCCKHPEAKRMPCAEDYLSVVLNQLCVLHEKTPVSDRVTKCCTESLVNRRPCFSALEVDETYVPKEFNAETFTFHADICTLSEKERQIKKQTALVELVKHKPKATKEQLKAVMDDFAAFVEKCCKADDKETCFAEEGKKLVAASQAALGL
# human plasma plasmin (Homo sapiens, UniProt P00747), sequence (P00747 581-810 limits assumed): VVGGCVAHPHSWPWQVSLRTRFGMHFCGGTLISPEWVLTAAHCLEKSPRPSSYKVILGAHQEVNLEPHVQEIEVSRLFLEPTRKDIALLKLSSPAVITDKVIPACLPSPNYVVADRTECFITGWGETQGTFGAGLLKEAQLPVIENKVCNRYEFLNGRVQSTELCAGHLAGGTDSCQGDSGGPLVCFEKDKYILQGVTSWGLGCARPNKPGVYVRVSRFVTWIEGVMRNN
# human plasma plasmin (Homo sapiens, UniProt P00747), sequence (P00747 98-580 partner limits assumed): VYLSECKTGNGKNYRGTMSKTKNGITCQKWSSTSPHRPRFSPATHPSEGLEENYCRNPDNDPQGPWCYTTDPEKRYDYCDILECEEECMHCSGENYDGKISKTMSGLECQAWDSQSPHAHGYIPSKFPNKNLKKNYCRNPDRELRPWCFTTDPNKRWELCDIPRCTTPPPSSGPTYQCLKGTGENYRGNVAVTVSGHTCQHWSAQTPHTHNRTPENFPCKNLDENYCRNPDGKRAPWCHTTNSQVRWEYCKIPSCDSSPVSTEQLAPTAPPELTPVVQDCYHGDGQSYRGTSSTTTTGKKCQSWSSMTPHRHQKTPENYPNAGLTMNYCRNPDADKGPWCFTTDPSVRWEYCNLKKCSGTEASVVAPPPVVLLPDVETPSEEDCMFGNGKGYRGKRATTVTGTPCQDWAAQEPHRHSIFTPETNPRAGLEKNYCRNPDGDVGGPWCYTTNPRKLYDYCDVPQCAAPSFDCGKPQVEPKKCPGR
compound,measurement,setting,value
"C[C@@H](NC(=O)CCCCCN1C(=O)C=CC1=O)C(=O)N[C@@H](Cc1ccccc1)C(=O)N[C@@H](CCCCN)C(=O)N[C@@H](CCCCNC(=O)CC[C@H](NC(=O)c1ccc(N(C)Cc2cnc3nc(N)nc(N)c3n2)cc1)C(=O)O)C(=O)O [AW054-EMC, EMC-D-Ala-Phe-Lys-Lys(γ-MTX)-OH] ({Hexanoyl(6-maleimido)}-[dA]FKK([γGlu-DAMPA])-OH)",change of body weight [%],[1],+12%
same,change of body weight [%],[2],−0.2%
"CN(Cc1cnc2nc(N)nc(N)c2n1)c1ccc(C(=O)N[C@@H](CCC(=O)O)C(=O)O)cc1 [MTX, Methotrexate]",T/C [%] maximum,[1],69%
same,change of body weight [%],[1],+19%
same,RA score Tag 55,[2],8.30
same,change of body weight [%],[2],+6.9%
same,"improved or achieved abatement after created disease, figure in parentheses (share of animals)",[3],(53)
same,"improved or achieved abatement after created disease, number of animals",[3],8
same,mean arthritis score at the end of the test,[3],3.1
same,mean period of time until breakout of renewed arthritis after beginning of treatment,[3],17.3 days
same,occurrence of arthritis at the end of the test (%),[3],(60) %
same,"occurrence of arthritis at the end of the test, number of animals",[3],9
EMC-D-Ala-Phe-Lys-Lys(γ-MTX)-OH ({Hexanoyl(6-maleimido)}-[dA]FKK([γGlu-DAMPA])-OH; SMILES C[C@@H](NC(=O)CCCCCN1C(=O)C=CC1=O)C(=O)N[C@@H](Cc1ccccc1)C(=O)N[C@@H](CCCCN)C(=O)N[C@@H](CCCCNC(=O)CC[C@H](NC(=O)c1ccc(N(C)Cc2cnc3nc(N)nc(N)c3n2)cc1)C(=O)O)C(=O)O),not cleaved,[4],loss of MTX is less than 10% after 24 hours
HSA-EMC-D-Ala-Phe-Lys-Lys(γ-MTX)-OH ({HSA-Hexanoyl(6-maleimido)}-[dA]FKK(γ‑MTX)-OH),cleavage by plasmin,[5],formation of H-Lys(γ-MTX)-OH as a cleavage product
same,cleavage in OVCAR-3 tumor homogenate,[6],formation of H-Lys(γ-MTX)-OH as a cleavage product can be observed
EMC-Arg-Ala-Phe-Met-Lys(γ-MTX)-OH,fragment found,[7],"H-Lys(γ-MTX)-OH, four hours"
"CSCC[C@H](NC(=O)[C@H](Cc1ccccc1)NC(=O)[C@H](C)NC(=O)[C@H](CCCNC(=N)N)NC(=O)CCCCCN1C(=O)C=CC1=O)C(=O)N[C@@H](CCCCNC(=O)CC[C@H](NC(=O)c1ccc(N(C)Cc2cnc3nc(N)nc(N)c3n2)cc1)C(=O)O)C(=O)O [C162, EMC-Arg-Ala-Phe-Met-Lys(γ-MTX)-OH] ({Hexanoyl(6-maleimido)}-RAFMK([γGlu-DAMPA])-OH)",bonding of the prodrug to HSA (albumin) in human plasma,"[8]; 200 μM, 2 min incubation with human blood plasma at 37° C., HPLC detection at 300 or 370 nm",almost complete decrease of the prodrug peak
same,bonding of the prodrug to albumin in plasma with blocked cysteine-34-group,"[8]; human blood plasma incubated with EMC (1000 μM) in advance, detection 370 nm",does not show a bonding of the prodrug to albumin
HSA-EMC-D-Ala-Phe-Lys-Lys(γ-MTX)-OH,fragment found,[9],"H-Lys(γ-MTX)-OH, four hours"
same,cleaved bond,[10],"Lys-Lys, one and four hours, respectively"
same,cleaved bond,[11],"Lys-Lys, one and four hours, respectively"
CN(Cc1cnc2nc(N)nc(N)c2n1)c1ccc(C(=O)NC(CCC(=O)NCCCCC(N)C(=O)O)C(=O)O)cc1 (centres unmarked) [H-Lys(γ-MTX)-OH],further cleavage of the cleavage product into MTX and lysine,[12],not cleaved into MTX and lysine any more
"CSCC[C@H](NC(=O)[C@H](C)NC(=O)[C@H](CCCNC(=N)N)NC(=O)[C@H](CCCNC(=N)N)NC(=O)CCCCCN1C(=O)C=CC1=O)C(=O)N[C@@H](CCCCNC(=O)CC[C@H](NC(=O)c1ccc(N(C)Cc2cnc3nc(N)nc(N)c3n2)cc1)C(=O)O)C(=O)O [C175, EMC-Arg-Arg-Ala-Met-Lys(γ-MTX)-OH] ({Hexanoyl(6-maleimido)}-RRAMK([γGlu-DAMPA])-OH)",change of body weight [%],[1],+7%
